Reference: patent US20240241099A1, “METHOD FOR IDENTIFYING PI3 KINASE-ALPHA INHIBITORS” (UNIVERSITÄT BASEL, priority 2021, published 2024)

Assays:
[1] = test system: AktSer473 phosphorylation in SKOV3 ovarian cancer cells; assay: Cellular washout study in SKOV3 cells, P-AktSer473 by immunoblot; format: cell-based; settings: 2.5 μM for 2 hours, then washout
Description: (§1) The experiments were performed in triplicate; CNX-1351 was used as positive control (irreversible inhibitor) and PQR514 as negative control (reversible inhibitor). (b) Metabolic stability of 19, 22 and CNX-1351 using rat liver microsomes. The time-dependent loss of test items (1 μM) with liver microsomes (0.5 mg microsomal protein/mL) and the percentages of test item remaining after 60 minutes of incubation were measured, (n=2).
The experiments were performed in triplicate; CNX-1351 was used as positive control (irreversible inhibitor) and PQR514 as negative control (reversible inhibitor).
(§2) The library of acrylamide-containing compounds was evaluated for PI3K signaling in SKOV3 ovarian cancer cells. […] Inhibition of AktSer473 phosphorylation measured by immunoblot analysis was used as an indicator of inhibition of PI3K signaling. Cells were incubated with the drugs (2.5 μM each) for 2 hours.
as §2, with “enone-containing” for “acrylamide-containing”

[2] = Metabolic stability in rat liver microsomes; format: in vitro ADME; settings: rat liver microsomes 0.5 mg protein/mL, 1 μM, 60 minutes
Description: as §1
The metabolic stability of 19, 22 and CNX-1351 was evaluated in vitro in rat liver microsomes.

[3] = test system: PKB phosphorylation on Ser473 in SKOV3 cells; assay: In-cell Western assay of PKB Ser473 phosphorylation in SKOV3 cells; format: cell-based; settings: n = 3, read-out: pPKB S473 IC50
[4] = molecular target: PI3Kα (Homo sapiens, UniProt P42336); assay: TR-FRET tracer displacement / time-dependent inhibition (IC50 shift) assay; format: binding
Chain of PI3Kα (P42336 whole entry): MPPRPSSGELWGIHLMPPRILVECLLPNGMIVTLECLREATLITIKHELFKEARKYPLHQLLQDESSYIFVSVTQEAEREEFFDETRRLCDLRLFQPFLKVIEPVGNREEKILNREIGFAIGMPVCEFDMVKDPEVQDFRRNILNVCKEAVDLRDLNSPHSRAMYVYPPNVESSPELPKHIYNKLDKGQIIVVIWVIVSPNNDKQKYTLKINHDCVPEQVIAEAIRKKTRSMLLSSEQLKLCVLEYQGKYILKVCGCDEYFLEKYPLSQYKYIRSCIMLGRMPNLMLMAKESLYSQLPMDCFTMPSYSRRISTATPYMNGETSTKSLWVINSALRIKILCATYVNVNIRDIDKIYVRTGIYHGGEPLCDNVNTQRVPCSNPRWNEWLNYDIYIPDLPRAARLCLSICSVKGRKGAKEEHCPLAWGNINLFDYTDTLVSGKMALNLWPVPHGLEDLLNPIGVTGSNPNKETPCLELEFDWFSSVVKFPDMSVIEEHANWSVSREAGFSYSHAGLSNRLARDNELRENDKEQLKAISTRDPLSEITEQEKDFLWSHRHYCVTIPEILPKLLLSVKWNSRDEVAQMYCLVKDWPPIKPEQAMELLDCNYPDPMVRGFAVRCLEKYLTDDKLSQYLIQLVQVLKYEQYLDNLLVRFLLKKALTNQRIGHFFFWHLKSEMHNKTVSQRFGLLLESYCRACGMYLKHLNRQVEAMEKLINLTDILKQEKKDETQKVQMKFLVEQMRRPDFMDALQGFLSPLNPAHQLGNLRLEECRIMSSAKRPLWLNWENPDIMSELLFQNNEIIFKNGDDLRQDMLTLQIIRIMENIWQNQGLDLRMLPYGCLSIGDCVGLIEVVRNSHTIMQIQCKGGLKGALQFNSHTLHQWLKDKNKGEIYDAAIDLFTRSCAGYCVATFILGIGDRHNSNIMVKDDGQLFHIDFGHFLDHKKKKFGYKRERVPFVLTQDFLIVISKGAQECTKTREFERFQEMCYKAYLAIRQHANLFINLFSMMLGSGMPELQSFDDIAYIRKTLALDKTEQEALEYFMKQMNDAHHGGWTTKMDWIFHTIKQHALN
Chain of PI3Kα (P27986 whole entry partner): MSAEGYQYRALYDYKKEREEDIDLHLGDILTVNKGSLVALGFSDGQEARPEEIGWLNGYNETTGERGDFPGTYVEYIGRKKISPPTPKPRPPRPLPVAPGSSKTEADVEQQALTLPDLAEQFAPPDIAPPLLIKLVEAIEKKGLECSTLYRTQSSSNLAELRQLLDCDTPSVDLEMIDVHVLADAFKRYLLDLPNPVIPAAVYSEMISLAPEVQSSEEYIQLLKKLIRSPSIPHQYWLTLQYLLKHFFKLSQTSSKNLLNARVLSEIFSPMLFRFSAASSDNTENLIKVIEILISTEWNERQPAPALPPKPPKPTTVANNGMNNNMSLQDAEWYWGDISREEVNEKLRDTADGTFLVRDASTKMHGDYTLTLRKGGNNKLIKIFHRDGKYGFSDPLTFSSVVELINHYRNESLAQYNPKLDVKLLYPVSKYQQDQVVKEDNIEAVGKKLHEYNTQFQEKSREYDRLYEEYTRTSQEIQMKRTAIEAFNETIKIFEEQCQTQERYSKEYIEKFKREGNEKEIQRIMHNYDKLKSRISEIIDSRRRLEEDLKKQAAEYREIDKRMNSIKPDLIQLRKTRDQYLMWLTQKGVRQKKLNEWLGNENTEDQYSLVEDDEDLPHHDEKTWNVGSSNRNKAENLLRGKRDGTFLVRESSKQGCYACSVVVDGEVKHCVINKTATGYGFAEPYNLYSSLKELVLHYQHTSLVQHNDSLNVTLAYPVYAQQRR
Description: The B-methyl substituted enone (2) and its corresponding moderately electrophilic derivative, β,β-dimethyl enone (3) were selected to explore the target space. A collection of compounds with pairwise matched linkers but either fast (2, 10-12) or moderate (3, 13-15) reacting Michael acceptors were synthesized (FIG. 3A). A time-dependent inhibition (IC50 shift) assay with five pre-incubation times was designed to identify covalent, time-dependent inhibitors. For compounds bearing a fast-reacting warhead (2, 10-12) a significant IC50 shift was observed also for compounds having their Michael acceptor at >4 Å from the cysteine thiol (FIG. 3E). […] The increased efficiency in covalent bond formation for 12 is due to the irreversible binding rather than an improvement in reversible affinity (see Ki values in FIG. 3D). […]
The library was tested for cellular potency on inhibition of PKB phorphorilation, considered as an indicator of inhibition of PI3K signaling. Time-resolved fluorescence resonance (TR-FRET) tracer displacement assay was used to determine the rate constant for irreversible inactivation (kinact) and the second order rate constant typically used to characterize the covalent binding of irreversible inhibitors to the target protein (kinact/Ki). […]

Row | SMILES | P-AktSer473 signaling after drug washout [1] | metabolic stability [2] | IC50 [3] | kinact/Ki, [nM^−1s^−1] ([4]; TR-FRET efficiency of covalent bond formation) | kinact, [s^−1] ([4]; TR-FRET rate constant for irreversible inactivation)
1 | CC(C)=CC(=O)CCC(=O)N1CCN(Cc2cc3nc(-c4cccc5[nH]ncc45)nc(N4CCOCC4)c3s2)CC1 [CNX-1351] | prolonged inhibition | rapidly metabolized | 290 nM | 1.73e-05 nM⁻¹ s⁻¹ | 0.000657 s⁻¹
2 | Nc1ncc(-c2nc(N3CCOCC3)nc(N3CCOCC3)n2)c(C(F)F)n1 [PQR514] | immediately recovered |  |  |  | 
